Results on four molecules are retold here after patent US20210030843A1, “COMPOSITION AND METHOD FOR REDUCING CHEMOTHERAPY-INDUCED NEUTROPENIA VIA THE ADMINISTRATION OF PLINABULIN AND A G-CSF AGENT” (BEYONDSPRING PHARMACEUTICALS, INC., priority 2018, published 2021).

Several values for one entry are separate records, joined by “and”; a condition that tells them apart may be missing. Identical values can stand only once. Like-named read-outs stand apart in the source and are kept apart here. Where only a bound is given, the exact number is not on record here.

For data set [1], the system named is patients with solid tumors receiving docetaxel myelosuppressive chemotherapy. Put plainly: Example 1: randomized, double blind study, plinabulin versus pegfilgrastim with docetaxel. It counts as in vivo, human. The settings on record: for change of neutrophil count through time (FIG. 1): after docetaxel 75 mg/m^2, pegfilgrastim 6 mg, plinabulin 5, 10, 20 mg/m^2. As to the method: A randomized, double blind study to evaluate duration of severe neutropenia with plinabulin versus pegfilgrastim in patients with solid tumors receiving docetaxel myelosuppressive chemotherapy was performed. Patients were randomly assigned to the following arms (with the respective sample sizes): Arm 1: Docetaxel (75 mg/m^2)+Pegfilgrastim (6 mg) (n=14); Arm 2: Docetaxel (75 mg/m^2)+Plinabulin (20 mg/m^2) (n=14); Arm 3: Docetaxel (75 mg/m^2)+Plinabulin (10 mg/m^2) (n=14); and Arm 4: Docetaxel (75 mg/m^2)+Plinabulin (5 mg/m^2) (n=13).

For data set [2], the system named is neutropenia caused by chemotherapies. Put plainly: Animal model studies of chemotherapy-caused neutropenia. Type of data set: in vivo. The settings on record: docetaxel, cisplatin, adriamycin, cyclosphosphamide, topotecan, gemcitabine.
Data set [3] has as its system patients (docetaxel-induced neutropenia). The settings on record: for proportion of patients with Grade 4 neutropenia: Cycle 1, docetaxel treatment alone vs addition of plinabulin to docetaxel, ANC <0.5×10^9/L, p<0.0003.
The test system of data set [4] is patients. The settings on record: Plinabulin.
Data set [5] has as its system Patients with solid tumors. Put plainly: Plinabulin monotherapy in patients with solid tumors, laboratory parameters. It counts as in vivo, human. As to conditions: in the absence of chemotherapy.
In data set [6] the test system is NSCLC patients (pts) with a measurable lesion. Kind of data set: Phase 2 trial, addition of Plinabulin to Docetaxel in NSCLC patients. As to conditions: human, in vivo.
In data set [7] the test system is Patients with first line breast cancer receiving TAC. Kind of data set: Example 2: Phase 2 open label study, plinabulin and pegfilgrastim after TAC. Type of data set: in vivo, human. As to conditions: pegfilgrastim 6 mg. As to the method: A multicenter, randomized study, involving G-CSF and plinabulin was performed. The Phase 2 portion was randomized and open label. The decision to complete the Phase 2 portion of the study as open label was made to reduce the complexities of study conduct and to allow for the assessment, via QoL, of same-day plinabulin dosing (i.e on the day of chemotherapy dosing) versus next day dosing with G-CSF. Patients with first line breast cancer were enrolled in the study.
Patients received up to 4 cycles of a docetaxel/doxorubicin/cyclophosphamide based chemotherapy regimen, every 3 weeks (21 days). On Day 1 of Cycle 1, all patients receive docetaxel (75 mg/m^2), doxorubicin (50 mg/m^2), and cyclophosphamide (500 mg/m^2)-Taxotere, Adriamycin and cyclophosphamide (TAC).
During Cycles 2 to 4, the doxorubicin component may be omitted at the discretion of the investigator, i.e., TC can be administered instead of TAC.
The eligibility of all patients was determined during a 28-day screening period.
Phase 2 (Open Label): In Phase 2, patients were randomly assigned to one of the treatment arms, with the arm designation and planned intervention as shown in Table 2.
Patients have been randomized to receive TAC (or TC for Cycles 2 to 4)+pegfilgrastim or a combination of plinabulin and pegfilgrastim in each of Arms 1, 2, 3, and 4.
In Phase 2 (Open Label), Cycles 1 to 4 consisted of TAC (or TC for Cycles 2 to 4) administered IV on Day 1, every 21 days. Patients in Arms 2 and 3 received a single dose of plinabulin over 30 minutes (±5 minutes), 30 minutes after the end of the TAC (or TC for Cycles 2 to 4) infusion on Day 1. On Day 2 of each cycle (≥24 hours after completing chemotherapy) patients in […] received a single dose of pegfilgrastim (6.0 mg) (subcutaneous injection) in an open label treatment.
Docetaxel: Docetaxel was administered at a dose of 75 mg/m2. Administration was carried out with a 1-hour IV infusion per institutional protocol at the dose prescribed by this clinical study protocol (75 mg/m2). Dexamethasone (16 mg per day administered as 8 mg twice daily, or as per institution standard) was given on the day before, the day of (Day 1), and the day following docetaxel infusion (Day 2).
Doxorubicin: Doxorubicin was administered at a dose of 50 mg/m2. Doxorubicin is potentially cardiotoxic. Risk for doxorubicin cardiotoxicity increases with the cumulative lifetime dose of doxorubicin. At the doxorubicin dose and schedule in this study, patients received a cumulative doxorubicin dose of […] of body surface area, below the threshold for symptomatic cardiac dysfunction. Patients were monitored, per institutional standard, for doxorubicin cardiotoxicity.
Cyclophosphamide: Cyclophosphamide was administered at a dose of 500 mg/m^2.
TAC Regimen: All patients received 3 week cycles of TAC chemotherapy. In each cycle, doxorubicin (50 mg/m2) given as a 15-minute IV infusion was administered first, followed immediately by cyclophosphamide (500 mg/m2) given as a 30-minute IV infusion, and then by docetaxel (75 mg/m2) administered as 1-hour IV infusion (the infusion times stated are approximate).

Data set [8] relates to patients. The settings on record: most common adverse reactions; cited from earlier work.
Data set [9] deals with patients. The settings on record: G-CSF, cited from earlier work.
The mark [10] stands for this setting: Table 4, alone or with plinabulin 20 mg/m^2.
[11] abbreviates: cycle 1 after TAC, breast cancer, alone or with plinabulin 20 mg/m^2.

As for `CC(C)(C)c1[nH]cnc1/C=c1\[nH]c(=O)/c(=C/c2ccccc2)[nH]c1=O` [Plinabulin, (3Z,6Z)-3-Benzylidene-6-{[5-(2-methyl-2-propanyl)-1H-imidazol-4-yl]methylene}-2,5-piperazinedione], the “change of neutrophil count through time (FIG. 1)” value in [1] is recorded as “started to rise again on day 10”. In addition, the “treating neutropenia induced by chemotherapeutic agent” value in data set [1] (docetaxel 75 mg/m^2) was “effective”. Further, the “overshot of the ANC during recovery” value in data set [1] (in vivo) is “prevented”. The “prevention of neutropenia caused by chemotherapies” value in data set [2] was “prevent neutropenia”. For the same molecule, in data set [3] (20 mg/m^2 plinabulin), the “Grade 3 transient hypertension, patients” value is listed as 5%. In data set [3] (30 mg/m^2 plinabulin), the “Grade 3 transient hypertension, patients” value is given as 20%. Also, the “proportion of patients with Grade 4 neutropenia” value in data set [3] is listed as 4.6%. Further, the “clinical sequelae associated with docetaxel-induced neutropenia (sepsis, infections, hospitalizations, docetaxel dose reductions, G-CSF use)” value in [3] (human, in vivo) is “reduced”. Also, in data set [3] (patients receiving plinabulin), the “bone pain, patients” value is given as 4%. In the data set on patients [4], the “Bone Pain (% of patients)” value is reported as less than 4% and the “Hospitalization (% of patients)” value was 6%. The “changes in hematology or chemistry laboratory parameters” value in [5] is reported as “did not experience any clinically significant deleterious changes”. The “Immune-Related AEs (IR-AEs)” value in [6] is “without increasing”.

With `CC(=O)O[C@@]12CO[C@@H]1C[C@H](O)[C@@]1(C)C(=O)[C@H](O)C3=C(C)[C@@H](OC(=O)[C@H](O)[C@@H](NC(=O)OC(C)(C)C)c4ccccc4)C[C@@](O)([C@@H](OC(=O)c4ccccc4)[C@H]21)C3(C)C` [docetaxel, reference compound], the “proportion of patients with Grade 4 neutropenia” value in data set [3] is reported as 33.3%.

B1: pegfilgrastim: colony-stimulating factor that acts on hematopoietic cells by binding to specific cell surface receptors (protein, chains of the INN, looked up)
chain: TPLGPASSLPQSFLLKCLEQVRKIQGDGAALQEKLCATYKLCHPEELVLLGHSLGIPWAPLSSCPSQALQLAGCLSQLHSGLFLYQGLLQALEGISPELGPTLDTLQLDVADFATTIWQQMEELGMAPALQPTQGAMPAFASAFQRRAGGVLVASHLQSFLEVSYRVLRHLAQP
modifications: PEG
With B1, the “change of neutrophil count through time (FIG. 1)” value in [1] is “began to drop after 10 days”. For the same molecule, in data set [7] (setting [10]), the Anti-cancer entry is recorded as “No” and the “DSN (grade 3/4)” value is recorded as “Well over 1 day”. For the same molecule, in data set [7] (setting [11]), the “% neutropenia (grade 4)” value is 57% and > 50%; the “DSN (grade 3/4)” value was 1.4 ± 1.0; the “patients with NLR greater than 5 (FIG. 6)” value is 76%. Besides, the “ANC nadir of median ANC (FIG. 2)” value in data set [7] (first 10 days of cycle 1, alone or with plinabulin 20 mg/m2) was “within the grade 3/4 neutropenia range”. Further, the “Median ANC Nadir” value in data set [7] (alone or with plinabulin 20 mg/m^2) was 0.47 10^9 cells/L. For the same molecule, in the data set on patients [8], the “bone pain, patients” value was 31% and the “pain in an extremity, patients” value is recorded as 9%.

B2: G-CSF: Granulocyte-colony stimulating factor: compounds or factors that stimulate proliferation, differentiation, commitment and end cell functional activation of granulocytes (protein, UniProt P09919 31-207, looked up)
Granulocyte …: TPLGPASSLPQSFLLKCLEQVRKIQGDGAALQEKLVSECATYKLCHPEELVLLGHSLGIPWAPLSSCPSQALQLAGCLSQLHSGLFLYQGLLQALEGISPELGPTLDTLQLDVADFATTIWQQMEELGMAPALQPTQGAMPAFASAFQRRAGGVLVASHLQSFLEVSYRVLRHLAQP
With B2, in the data set on patients [9], the “Hospitalization (% of patients)” value is on record as 20%. For the same molecule, the “Bone Pain (% of patients)” value in the data set on patients [9] (footnote mark 1) is greater than 20%^1.
